Tests used:
[1] = tested on: metastatic melanoma; assay: Phase II M D Anderson trial of paclitaxel Q4Dx3 every 21 days, tumor responses; assay type: in vivo, human
Excerpt: Cytokines and therapeutic agents which may be used include, for example, platinum compounds (e.g., spiroplatin, cisplatin, and carboplatin), thalidomide, methotrexate, adriamycin, mitomycin, ansamitocin, bleomycin, cytosine arabinoside, arabinosyl adenine, mercaptopolylysine, vincristine, busulfan, chlorambucil, melphalan (e.g., PAM, L-PAM or phenylalanine mustard), mercaptopurine, mitotane, carmustine, procarbazine hydrochloride dactinomycin (actinomycin D), daunorubicin hydrochloride, doxorubicin hydrochloride, taxol, mitomycin, plicamycin (mithramycin), aminoglutethimide, estramustine phosphate sodium, flutamide, leuprolide acetate, megestrol acetate, tamoxifen citrate, testolactone, trilostane, amsacrine (m-AMSA), asparaginase (L-asparaginase) Erwina asparaginase, etoposide (VP-16), interferon α-2a, interferon α-2b, teniposide (VM-26), vinblastine sulfate (VLB), vincristine sulfate, bleomycin, bleomycin sulfate, methotrexate, adriamycin, and arabinosyl; biological response modifiers such as muramyldipeptide, muramyltripeptide, microbial cell wall components, lymphokines (e.g., bacterial endotoxin such as lipopolysaccharide, macrophage activation factor), sub-units of bacteria (such as Mycobacteria, Corynebacteria), the synthetic dipeptide N-acetyl-muramyl-L-alanyl-D-isoglutamine; hormones such as growth hormone, melanocyte stimulating hormone, estradiol, beclomethasone dipropionate, betamethasone, betamethasone acetate and betamethasone sodium phosphate, vetamethasone disodium phosphate, vetamethasone sodium phosphate, cortisone acetate, dexamethasone, dexamethasone acetate, dexamethasone sodium phosphate, flunisolide, hydrocortisone, hydrocortisone acetate, hydrocortisone cypionate, hydrocortisone sodium phosphate, hydrocortisone sodium succinate, methylprednisolone, methylprednisolone acetate, methylprednisolone sodium succinate, paramethasone acetate, prednisolone, prednisolone acetate, prednisolone sodium phosphate, prednisolone tebutate, prednisone, triamcinolone, triamcinolone acetonide, triamcinolone diacetate, triamcinolone hexacetonide and fludrocortisone acetate; immunoadjuvants and cytokines may also be employed, including interleukins (e.g., IL-1, IL-2, IL-3, IL-6), leukemia inhibitory factor, interferons, such as INF-α, TGF-beta, erythropoietin, TNF, lymphotoxin, and thrombopoietin; thalidomide and/or other agents to inhibit the production and/or action of cytokine/growth factors such as M-α, IGF-1, EGF, TGF α, IL-1β, MGSA and bFGF in different cell types involved in tumor growth and/or angiogenesis of melanoma.

[2] = tested on: adult leukemia, solid tumors, and pediatric solid tumor patients; assay: Earlier published trials of the Q4D paclitaxel schedule; assay type: in vivo, human; settings: one patient with a recurrent large metastatic melanoma
Excerpt: An added benefit to this regimen includes a reduction in myelosupression. To this end, we devised the Q4 day (Q4D)×3 every 21-day treatment schedule which has the added value of increasing the dose intensity during each 21-day treatment period beyond that of the once every 21-day schedule (Ainsworth S. K., and Helson, L., U.S. Pat. No. 5,696,153 issued Dec. 9, 1997). […] During these trials an anecdotal twelve-month partial response in a patient with a recurrent large metastatic melanoma was observed. […]

[3] = tested on: patients with melanoma
[4] = tested on: patients with melanoma; settings: cited from earlier work
[5] = 17 patients, 90 mg/M^2 Q4 days x3

CC(=O)O[C@H]1C(=O)[C@@]2(C)[C@H]([C@H](OC(=O)c3ccccc3)[C@]3(O)C[C@H](OC(=O)[C@H](O)[C@@H](NC(=O)c4ccccc4)c4ccccc4)C(C)=C1C3(C)C)[C@]1(OC(C)=O)CO[C@@H]1C[C@@H]2O [paclitaxel]
tumor volume decrease ([1]; Patient #1, after another two courses (four in all)): 83%
decrease in liver metastases volume ([1]; Patient #1, after two courses at 270 mg/M^2/course): 41%
decrease in lung metastases ([1]; Patient #2, 270 mg/M^2/course): 43%
tumor control maintained, number of courses ([1]; Patient #2, 270 mg/M^2/course): eight
decrease in tumor volume ([1]; Patient #3, scapular primary, after 4 courses at 270 mg/M^2/course): 39%
decrease in tumor volume ([1]; Patient #4, right calf primary, after 4 courses at 270 mg/M^2/course): 15%
decrease in tumor volume ([1]; Patient #5, right heel mass, after 2 courses at 270 Mg/M^2/course): 12%
clinical response ([1]; Patient #6, during 4 courses at 270 mg/M^2/course): stable disease
clinical response ([1]; Patient #7, ciliochoroidal primary, no previous chemotherapy, after 3 courses at 270 mg/M^2/course): stable disease
clinical response ([1]; Patient #8, tumor of dorsum of right foot, previously treated, during two courses at 270 mg/M^2/course): stable disease
clinical response ([1]; Patient #9, non-choroidal melanoma, no prior chemotherapy, during 6 courses at 270 mg/M^2/course): stable disease
objective responses, tumor reduction ([1]; interim analysis, first 21 patients, 90 mg/M^2/dose Q4D, advanced heavily pretreated melanoma): greater than 50%
reductions in hepatic tumor masses ([1]; interim analysis, sustained over one month, additional two patients of first 21, 90 mg/M^2/dose Q4D): 25-40%
duration of anecdotal partial response [2]: twelve
associated toxicity versus 200 mg/M^2 Q 21-day schedule ([3]; 270 mg/M^2 per 21 days, Q4D schedule): significantly less
Grade 3 abdominal pain (sufficient to interfere with function) [3, 5]: 3 patients
Grade 3 anemia (between 6.5-7.9 grams/100 ml blood) [3, 5]: 2 patients
Grade 3 diarrhea (over 7-9 stools/day) [3, 5]: 2 patients
Grade 3 edema (>20% weight gain) [3, 5]: 1 patient
Grade 3 fatigue (objective weakness with impairment of function) [3, 5]: 4 patients
Grade 3 granulocytopenia (between 0.5-0.9x10^3/mm^3) [3, 5]: 6 patients
Grade 3 increased alkaline phosphatase levels (between 5.1-20xN) [3, 5]: 2 patients
Grade 3 toxicity, number of patients [3, 5]: 11 patients
Grade 3 toxicity, number of times [3, 5]: 21 times
Grade 4 BUN increase (greater than 10 times normal values) [3, 5]: 1 patient
Grade 4 granulocytopenia (less than 0.5x10^3/mm^3) [3, 5]: 4 patients
Grade 4 leukopenia (less than 1.0x10^3/mm^3) [3, 5]: 2 patients
Grade 4 toxicity, number of patients [3, 5]: 3 patients
major side effect ([3]; Patient #2, eight courses at 270 mg/M^2/course): paresthesia
partial responses in patients with melanoma ([4]; 24-hour infusion, 250 mg/M^2 once every three weeks (Legha 1990)): 3/25
paclitaxel dose a majority of the melanoma patients could tolerate ([4]; Legha 1990): ≤ 200 mg/M^2
objective responses ([4]; phase II, same schedule (24-hour infusion 250 mg/M^2 q3 weeks), 28 patients (Einzig 1988)): five
maximum tolerated dose intensity under previous regimens ([4]; three 175 mg/M^2 doses given every 21 days (63-day period)): 525 mg/M^2

Source: patent US20020013362A1 (priority 2000, published 2002)
